Test results taken from patent US6916798B2, “Inhibitors of GSK-3 and uses thereof” (Vertex Pharmaceuticals Incorporated, priority 2001, dated 2005).
Like-named read-outs stand apart in the source and are kept apart here.

Biological target: T1, GSK-3β (AA 1-420) (Homo sapiens, UniProt P49841)
T1 construct: GSK-3β (AA 1-420)
Assay: Ki determination for the inhibition of GSK-3, standard coupled enzyme system
Format: biochemical
Procedure: Final substrate concentrations in the assay were 20 μM ATP (Sigma Chemicals, St Louis, Mo.) and 300 μM peptide (HSSPHQS(PO3H2)EDEEE, American Peptide, Sunnyvale, Calif.). Reactions were carried out at 30° C. and 20 nM GSK-3β. Final concentrations of the components of the coupled enzyme system were 2.5 mM phosphoenolpyruvate, 300 μM NADH, 30 μg/ml pyruvate kinase and 10 μg/ml lactate dehydrogenase.
An assay stock buffer solution was prepared containing all of the reagents listed above with the exception of ATP and the test compound of interest. The assay stock buffer solution (175 μl) was incubated in a 96 well plate with 5 μl of the test compound of interest at final concentrations spanning 0.002 μM to 30 μM at 30 ° C. for 10 min. […] The reaction was initiated by the addition of 20 μl of ATP (final concentration 20 μM). Rates of reaction were obtained using a Molecular Devices Spectramax plate reader (Sunnyvale, Calif.) over 10 min at 30° C. The Ki values were determined from the rate data as a function of inhibitor concentration.

[1] = 20 μM ATP, 300 μM peptide, 20 nM GSK-3β, 30° C., read-out: Ki values for GSK-3

T1 sequence (P49841 whole entry, the tested form may be a part): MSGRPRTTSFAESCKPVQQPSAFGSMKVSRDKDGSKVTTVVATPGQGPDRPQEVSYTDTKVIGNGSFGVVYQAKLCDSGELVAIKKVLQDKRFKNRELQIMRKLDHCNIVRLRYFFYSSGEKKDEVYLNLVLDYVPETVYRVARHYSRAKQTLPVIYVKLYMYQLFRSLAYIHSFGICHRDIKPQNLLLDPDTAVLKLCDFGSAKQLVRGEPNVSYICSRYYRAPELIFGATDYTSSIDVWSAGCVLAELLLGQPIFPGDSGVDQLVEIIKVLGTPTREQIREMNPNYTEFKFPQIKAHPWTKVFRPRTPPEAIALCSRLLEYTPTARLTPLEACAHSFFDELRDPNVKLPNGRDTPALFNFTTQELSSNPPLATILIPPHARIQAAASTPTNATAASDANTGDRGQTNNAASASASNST

Row | Structure (SMILES) | Ki [1] | Ki
1 | CC1=NNC(=O)/C1=N\Nc1ccccc1Cl [Compound 8] | 100 to 1000 nM | 
2 | O=C1NN=C(c2ccccc2)/C1=N/Nc1ccccc1Cl [Compound 12] | 100 to 1000 nM | 
3 | O=C1NN=C(c2ccccn2)/C1=N/Nc1ccccc1Cl [Compound 14] | 100 to 1000 nM | 
4 | O=C1NN=C(c2cccnc2)/C1=N/Nc1ccccc1Cl [Compound 15] | 100 to 1000 nM | 
5 | O=C1NN=C(c2ccncc2)/C1=N/Nc1ccccc1Cl [Compound 16] | 100 to 1000 nM | 
6 | O=C1NN=C(c2ccccn2)C1=NNc1ccc(Cl)cc1 [Compound 17] | 100 to 1000 nM | 
7 | O=C1NN=C(c2cccnc2)C1=NNc1ccc(Cl)cc1 [Compound 18] | < 100 nM | 
8 | COc1ccc(N/N=C2\C(=O)NN=C2c2cccnc2)cc1 [Compound 20] |  | < 100 nM
9 | COc1ccc(N/N=C2\C(=O)NN=C2c2ccncc2)cc1 [Compound 21] | < 100 nM | 
10 | O=C1NN=C(c2ccncc2)C1=NNc1ccc(Cl)cc1 [Compound 24] | < 100 nM | 
11 | O=C1NN=C(c2ccccc2)/C1=N/Nc1ccc(Cl)cc1 [Compound 25] | < 100 nM | 
12 | COc1ccc(N/N=C2\C(=O)NN=C2c2ccccn2)cc1 [Compound 26] | 100 to 1000 nM | 
13 | O=C1NN=C(c2ccccc2F)C1=NNc1ccc(Cl)cc1 [Compound 27] | 100 to 1000 nM | 
14 | COc1ccc(NN=C2C(=O)NN=C2c2ccccc2F)cc1 [Compound 33] | 100 to 1000 nM | 
15 | CCN(CC)c1ccc(N/N=C2\C(=O)NN=C2c2ccc(OC)cc2)cc1 [Compound 36] | < 100 nM | 
16 | CCN(CC)c1ccc(NN=C2C(=O)NN=C2c2cc(OC)c(OC)c(OC)c2)cc1 [Compound 38] | 100 to 1000 nM | 
17 | COc1cc(N2CCOCC2)ccc1NN=C1C(=O)NN=C1c1ccc(OC)c(OC)c1 [Compound 40] | 100 to 1000 nM | 
18 | O=C1NN=C(c2ccc3c(c2)OCO3)C1=NNc1ccc(Cl)cc1 [Compound 45] | < 100 nM | 
19 | COc1ccc(NN=C2C(=O)NN=C2c2ccc3c(c2)OCO3)cc1 [Compound 48] | < 100 nM | 
20 | COc1ccc(C2=NNC(=O)/C2=N\Nc2ccc(N(C)C)cc2)cc1 [Compound 51] | < 100 nM | 
21 | COc1cccc(C2=NNC(=O)/C2=N\Nc2ccc(N(C)C)cc2)c1 [Compound 53] | < 100 nM | 
22 | COc1ccc(C2=NNC(=O)C2=NNc2ccc(Br)cc2)cc1 [Compound 54] | < 100 nM | 

Row | Structure (SMILES) | Ki [1] | Ki
23 | COc1ccc(C2=NNC(=O)/C2=N\Nc2ccc(C#N)cc2)cc1 [Compound 57] | < 100 nM | 
24 | COc1cccc(C2=NNC(=O)/C2=N\Nc2ccc(C#N)cc2)c1 [Compound 59] | < 100 nM | 
25 | COc1ccc(C2=NNC(=O)C2=NNc2ccc(C(F)(F)F)cc2)cc1 [Compound 63] | < 100 nM | 
26 | COc1cccc(C2=NNC(=O)C2=NNc2ccc(C(F)(F)F)cc2)c1 [Compound 65] | < 100 nM | 
27 | COc1ccc(C2=NNC(=O)C2=NNc2cccc(C(F)(F)F)c2)cc1 [Compound 66] | < 100 nM | 
28 | COc1cccc(C2=NNC(=O)C2=NNc2cccc(C(F)(F)F)c2)c1 [Compound 68] | < 100 nM | 
29 | N#Cc1ccc(C2=NNC(=O)C2=NNc2ccc(Cl)cc2)cc1 [Compound 75] | < 100 nM | 
30 | COc1ccc(NN=C2C(=O)NN=C2c2ccc(C#N)cc2)cc1 [Compound 76] | 100 to 1000 nM | 
31 | COc1ccc(C2=NNC(=O)C2=NNc2ccc([N+](=O)[O-])cc2)cc1 [Compound 77] | < 100 nM | 
32 | COc1cccc(C2=NNC(=O)C2=NNc2ccc([N+](=O)[O-])cc2)c1 [Compound 78] | < 100 nM | 
33 | COc1ccc(C2=NNC(=O)C2=NNc2ccc(-c3ccc(F)cc3)cc2)cc1 [Compound 82] | < 100 nM | 
34 | COc1ccc(C2=NNC(=O)C2=NNc2ccc(OC)c(-c3cc(OC)c(OC)c(OC)c3)c2)cc1OC [Compound 109, 5-(3,4-Dimethoxy-phenyl)-4-[(6,3′,4′,5′-tetramethoxy-biphenyl-3-yl)-hydrazono]-2,4-dihydro-pyrazol-3-one] | < 100 nM | 
35 | CCOc1cc(N2CCOCC2)c(OCC)cc1NN=C1C(=O)NN=C1c1ccc(OC)c(OC)c1 [Compound 111, 4-[(2,5-Diethoxy-4-morpholin-4-yl-phenyl)-hydrazono]-5-(3,4-dimethoxy-phenyl)-2,4-dihydro-pyrazol-3-one] | 100 to 1000 nM | 
36 | COc1cc(OC)c(NN=C2C(=O)NN=C2c2ccc(OC)c(OC)c2)c(OC)c1 [Compound 112, 5-(3,4-Dimethoxy-phenyl)-4-[(2,4,6-trimethoxy-phenyl)-hydrazono]-2,4-dihydro-pyrazol-3-one] | 100 to 1000 nM | 
37 | COc1cc(C2=NNC(=O)C2=NNc2ccc(N3CCOCC3)cc2OC)ccc1O [Compound 113, 5-(4-Hydroxy-3-methoxy-phenyl)-4-[(2-methoxy-4-morpholin-4-yl-phenyl)-hydrazono]-2,4-dihydro-pyrazol-3-one] | 100 to 1000 nM | 
38 | COc1ccc(NN=C2C(=O)NN=C2c2cc(OC)c(OC)c(OC)c2)cc1N1CCOCC1 [Compound 124, 4-[(4-Methoxy-3-morpholin-4-yl-phenyl)-hydrazono]-5-(3,4,5-trimethoxy-phenyl)-2,4-dihydro-pyrazol-3-one] | < 100 nM | 
39 | O=C1NN=C(c2ccc(N3CCOCC3)cc2)C1=NNc1cccc(-c2ccccc2)c1 [Compound 205] | < 100 nM | 
40 | COc1ccc(C2=NNC(=O)C2=NNc2ccc3c(c2)C(=O)c2ccccc2-3)cc1 [Compound 206] | < 100 nM | 
41 | O=C1NN=C(c2ccc(N3CCOCC3)cc2)C1=NNc1ccc2c(c1)C(=O)c1ccccc1-2 [Compound 208] | < 100 nM | 
42 | COc1ccc(C2=NNC(=O)C2=NNc2ccc3c(c2)OCO3)cc1 [Compound 213] | < 100 nM | 
43 | CCn1c2ccccc2c2cc(NN=C3C(=O)NN=C3c3ccc(OC)cc3)ccc21 [Compound 217] | < 100 nM | 
44 | COc1ccc(Nc2ccc(NC=C3C(=O)NN=C3c3ccc(OC)cc3)cc2)cc1 [Compound 224] | 100 to 1000 nM | 

The next lines start with results.

Row | Ki [1] | Structure (SMILES) | Ki
45 | < 100 nM | COc1cccc(C2=NNC(=O)/C2=N\Nc2ccc(Cl)cc2)c1 [Compound 49] | 
46 | < 100 nM | COc1ccc(N/N=C2\C(=O)NN=C2c2cccc(OC)c2)cc1 [Compound 50] | 
47 | < 100 nM | COc1ccc(C2=NNC(=O)C2=NNc2ccc(Br)cc2)cc1OC [Compound 55] | 
48 | < 100 nM | COc1cccc(C2=NNC(=O)C2=NNc2ccc(Br)cc2)c1 [Compound 56] | 
49 | < 100 nM | COc1ccc(C2=NNC(=O)C2=NNc2ccc(C(F)(F)F)cc2)cc1OC [Compound 64] | 
50 | < 100 nM | COc1ccc(C2=NNC(=O)C2=NNc2cccc(C(F)(F)F)c2)cc1OC [Compound 67] | 
51 | < 100 nM | COc1ccc(C2=NNC(=O)/C2=N\Nc2cccc(Cl)c2)cc1 [Compound 69] | 
52 | < 100 nM | COc1cccc(C2=NNC(=O)/C2=N\Nc2cccc(Cl)c2)c1 [Compound 71] | 
53 | < 100 nM | COc1ccc(C2=NNC(=O)C2=NNc2cccc(OC)c2)cc1 [Compound 72] | 
54 | < 100 nM | COc1cccc(N/N=C2\C(=O)NN=C2c2cccc(OC)c2)c1 [Compound 74] | 
55 | < 100 nM | COc1ccc(C2=NNC(=O)C2=NNc2ccc(-c3ccccc3)cc2)cc1OC [Compound 80] | 
56 | < 100 nM | COc1ccc(C2=NNC(=O)C2=NNc2ccc(-c3ccc(F)cc3)cc2)cc1OC [Compound 83] | 
57 | 100 to 1000 nM | COc1cccc(C2=NNC(=O)C2=NNc2ccc(-c3ccc(F)cc3)cc2)c1 [Compound 84] | 
58 | < 100 nM | COc1ccc(C2=NNC(=O)C2=NNc2ccc(Oc3ccccc3)cc2)cc1 [Compound 85] | 
59 | < 100 nM | COc1cccc(C2=NNC(=O)C2=NNc2ccc(Oc3ccccc3)cc2)c1 [Compound 87] | 
60 | < 100 nM | COc1ccc(C2=NNC(=O)C2=NNc2cccc(Oc3ccccc3)c2)cc1 [Compound 88] | 
61 | < 100 nM | COc1ccc(C2=NNC(=O)C2=NNc2cccc(Oc3ccccc3)c2)cc1OC [Compound 89] | 
62 | < 100 nM | COc1cccc(C2=NNC(=O)C2=NNc2cccc(Oc3ccccc3)c2)c1 [Compound 90] | 
63 | < 100 nM | COc1ccc(C2=NNC(=O)C2=NNc2ccc(OC)c(-c3cccc(N)c3)c2)cc1OC [Compound 105, 4-[(3′-Amino-6-methoxy-biphenyl-3-yl)-hydrazono]-5-(3,4-dimethoxy-phenyl)-2,4-dihydro-pyrazol-3-one] | 
64 | < 100 nM | COc1ccc(C2=NNC(=O)C2=NNc2ccc(OC)c(N3CCOCC3)c2)cc1OC [Compound 123, 5-(3,4-Dimethoxy-phenyl)-4-[(4-methoxy-3-morpholin-4-yl-phenyl)-hydrazono]-2,4-dihydro-pyrazol-3-one] | 
65 | < 100 nM | COc1ccc(C2=NNC(=O)C2=NNc2ccc(OC)c(N3CCN(C)CC3)c2)cc1OC [Compound 125, 5-(3,4-Dimethoxy-phenyl)-4-{[4-methoxy-3-(4-methyl-piperazin-1-yl)-phenyl]-hydrazono}-2,4-dihydro-pyrazol-3-one] | 
66 | < 100 nM | COc1cc(C2=NNC(=O)C2=NNc2ccc(OC)c(N3CCN(C)CC3)c2)ccc1OCc1ccccc1 [Compound 126, 5-(4-Benzyloxy-3-methoxy-phenyl)-4-{[4-methoxy-3-(4-methyl-piperazin-1-yl)-phenyl]-hydrazono}-2,4-dihydro-pyrazol-3-one] | 
67 | < 100 nM | COc1ccc(C2=NNC(=O)C2=NNc2cccc(-c3ccccc3)c2)cc1 [Compound 203] | 
68 | < 100 nM | COc1ccc(C2=NNC(=O)C2=NNc2cccc(-c3ccccc3)c2)cc1OC [Compound 204] | 
69 | < 100 nM | COc1ccc(C2=NNC(=O)C2=NNc2ccc3c(c2)C(=O)c2ccccc2-3)cc1OC [Compound 207] | 
70 | < 100 nM | CCn1c2ccccc2c2cc(NN=C3C(=O)NN=C3c3ccc(OC)c(OC)c3)ccc21 [Compound 218] | 
71 | < 100 nM | COc1ccc(C2=NNC(=O)C2=NNc2ccc(OC)c(-c3ccccc3)c2)cc1 [Compound 220] | 
